Test system: LG0567-F671-PDC multi-cell spheroid viability
Test: Anticancer human tumor LG0567-F671-PDC patient-derived lung adenocarcinoma cell line growth inhibition [IpAb]
Settings: for IC50: curve of first compound; for viability, T/C: stronger effect = lower value
Procedure, shortened: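 Multi-cell spheroids of 60% tumour cells, 25% HUVEC and 15% MSC in ultra-low-attachment U-bottom wells, treated with agents combined with ipatasertib or abemaciclib. Half-log ranges top out near clinical Cmax, or 10 microM when Cmax is unknown.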

[1] = second compound 0.1 µM, first compound 0.00316 µM
[2] = second compound 0.1 µM, first compound 0.01 µM
[3] = second compound 0.1 µM, first compound 0.0316 µM
[4] = second compound 0.1 µM, first compound 0.1 µM
[5] = second compound 0.1 µM, first compound 0.316 µM
[6] = second compound 0.1 µM, first compound 1 µM
[7] = second compound 0.316 µM, first compound 0.00316 µM
[8] = second compound 0.316 µM, first compound 0.01 µM
[9] = second compound 0.316 µM, first compound 0.0316 µM
[10] = second compound 0.316 µM, first compound 0.1 µM
[11] = second compound 0.316 µM, first compound 0.316 µM
[12] = second compound 0.316 µM, first compound 1 µM
[13] = second compound 1 µM, first compound 0.00316 µM
[14] = second compound 1 µM, first compound 0.01 µM
[15] = second compound 1 µM, first compound 0.0316 µM
[16] = second compound 1 µM, first compound 0.1 µM
[17] = second compound 1 µM, first compound 0.316 µM
[18] = second compound 1 µM, first compound 1 µM
[19] = second compound 3.16 µM, first compound 0.0316 µM
[20] = second compound 3.16 µM, first compound 0.1 µM
[21] = second compound 3.16 µM, first compound 0.316 µM
[22] = second compound 3.16 µM, first compound 1 µM
[23] = second compound 10 µM, first compound 0.0316 µM
[24] = second compound 10 µM, first compound 0.1 µM
[25] = second compound 10 µM, first compound 0.316 µM
[26] = second compound 10 µM, first compound 1 µM
[27] = second compound 0.1 µM, first compound 3.16 µM
[28] = second compound 0.1 µM, first compound 10 µM
[29] = second compound 0.316 µM, first compound 3.16 µM
[30] = second compound 0.316 µM, first compound 10 µM
[31] = second compound 1 µM, first compound 3.16 µM
[32] = second compound 1 µM, first compound 10 µM
[33] = second compound 3.16 µM, first compound 3.16 µM
[34] = second compound 3.16 µM, first compound 10 µM
[35] = second compound 10 µM, first compound 3.16 µM
[36] = second compound 10 µM, first compound 10 µM
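Note: viability read after 7 days of drug exposure.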
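Throughout, for viability, T/C: 100% = DMSO vehicle control luminescence.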

| Structure (SMILES) | IC50 (second compound 0.1 µM) [nM] | IC50 (second compound 0.316 µM) [nM] | IC50 (second compound 1 µM) [nM] | IC50 (second compound 3.16 µM) [nM] | IC50 (second compound 10 µM) [nM] | viability, T/C [3] [%] | viability, T/C [4] [%] | viability, T/C [5] [%] | viability, T/C [6] [%] | viability, T/C [9] [%] | viability, T/C [10] [%] | viability, T/C [11] [%] | viability, T/C [12] [%] | viability, T/C [15] [%] | viability, T/C [16] [%] | viability, T/C [17] [%] | viability, T/C [18] [%] | viability, T/C [19] [%] | viability, T/C [20] [%] | viability, T/C [21] [%] | further results |
| --- | --- | --- | --- | --- | --- | --- | --- | --- | --- | --- | --- | --- | --- | --- | --- | --- | --- | --- | --- | --- | --- |
| COc1c(OCCCN2CCOCC2)ccc2c3n(c(=NC(=O)c4cnc(N)nc4)nc12)CCN3 + CC(C)NCC(C(=O)N1CCN(c2ncnc3c2C(C)CC3O)CC1)c1ccc(Cl)cc1 | 53.7 | 43.4 | 11.8 | 22.4 | 6.24 | 54.7 | 44 | 32.2 | 29.4 | 47.4 | 42.6 | 28.5 | 19.9 | 41 | 30 | 30.5 | 22.6 | 46.5 | 34.5 | 26.7 | viability, T/C [1]: 99.6%; viability, T/C [2]: 85.8%; viability, T/C [7]: 82.8%; viability, T/C [8]: 75.8%; viability, T/C [13]: 72.7%; viability, T/C [14]: 49.8%; viability, T/C (second compound 3.16 µM, first compound 0.00316 µM): 71.4%; viability, T/C (second compound 3.16 µM, first compound 0.01 µM): 58.5%; viability, T/C [22]: 18.4%; viability, T/C (second compound 10 µM, first compound 0.00316 µM): 57.3%; viability, T/C (second compound 10 µM, first compound 0.01 µM): 42.2%; viability, T/C [23]: 39%; viability, T/C [24]: 30.9%; viability, T/C [25]: 18.9%; viability, T/C [26]: 18.8% |
| C=CCn1c(=O)c2cnc(Nc3ccc(N4CCN(C)CC4)cc3)nc2n1-c1cccc(C(C)(C)O)n1 + CC(C)NCC(C(=O)N1CCN(c2ncnc3c2C(C)CC3O)CC1)c1ccc(Cl)cc1 | 479 | 803 | 626 | 1050 | 646 | 80.7 | 78.5 | 52.1 | 44.6 | 75 | 73.1 | 53.3 | 50.5 | 69.6 | 84.6 | 65.2 | 37.8 | 79.1 | 83 | 59.1 | viability, T/C [27]: 34.6%; viability, T/C [28]: 33.4%; viability, T/C [29]: 36.2%; viability, T/C [30]: 23.6%; viability, T/C [31]: 37.6%; viability, T/C [32]: 20.2%; viability, T/C [22]: 50.8%; viability, T/C [33]: 36.9%; viability, T/C [34]: 19.5%; viability, T/C [23]: 72.8%; viability, T/C [24]: 76%; viability, T/C [25]: 51.7%; viability, T/C [26]: 49.1%; viability, T/C [35]: 31.9%; viability, T/C [36]: 26.8% |
| COc1c(OCCCN2CCOCC2)ccc2c3n(c(=NC(=O)c4cnc(N)nc4)nc12)CCN3 + CCN1CCN(Cc2ccc(Nc3ncc(F)c(-c4cc(F)c5nc(C)n(C(C)C)c5c4)n3)nc2)CC1 | 60 | 22.8 | 73.4 | – | – | 62.5 | 40.4 | 32.5 | 26.6 | 41.6 | 33.2 | 31.5 | 20.5 | 56 | 43.2 | 40.8 | 25.1 | – | – | – | IC50 (second compound 0.01 µM): 76.5 nM; IC50 (second compound 0.0316 µM): 60.9 nM; viability, T/C (second compound 0.01 µM, first compound 0.00316 µM): 85.5%; viability, T/C (second compound 0.01 µM, first compound 0.01 µM): 72.7%; viability, T/C (second compound 0.01 µM, first compound 0.0316 µM): 77.5%; viability, T/C (second compound 0.01 µM, first compound 0.1 µM): 41.6%; viability, T/C (second compound 0.01 µM, first compound 0.316 µM): 36.5%; viability, T/C (second compound 0.01 µM, first compound 1 µM): 31.8%; viability, T/C (second compound 0.0316 µM, first compound 0.00316 µM): 105%; viability, T/C (second compound 0.0316 µM, first compound 0.01 µM): 74.6%; viability, T/C (second compound 0.0316 µM, first compound 0.0316 µM): 60.5%; viability, T/C (second compound 0.0316 µM, first compound 0.1 µM): 43.1%; viability, T/C (second compound 0.0316 µM, first compound 0.316 µM): 34.5%; viability, T/C (second compound 0.0316 µM, first compound 1 µM): 17.6%; viability, T/C [1]: 73%; viability, T/C [2]: 63.4%; viability, T/C [7]: 67.8%; viability, T/C [8]: 74.2%; viability, T/C [13]: 69.7%; viability, T/C [14]: 71.1% |
| Cn1ncc(Cl)c1-c1cc(C(=O)NC(CN)Cc2cccc(F)c2)sc1Cl (stereo not given) + CC(C)NCC(C(=O)N1CCN(c2ncnc3c2C(C)CC3O)CC1)c1ccc(Cl)cc1 | 3220 | 3410 | 1910 | 3020 | 2390 | 68.7 | 68.3 | 74.8 | 81.1 | 79.6 | 81.4 | 81.8 | 61.7 | 71.1 | 89.5 | 71.3 | 67.1 | 70 | 82.5 | 76.3 | viability, T/C [27]: 50.8%; viability, T/C [28]: 0.2%; viability, T/C [29]: 58.2%; viability, T/C [30]: 0.18%; viability, T/C [31]: 37.1%; viability, T/C [32]: 0.16%; viability, T/C [22]: 51.5%; viability, T/C [33]: 57%; viability, T/C [34]: 0.39%; viability, T/C [23]: 77.5%; viability, T/C [24]: 76.9%; viability, T/C [25]: 83.6%; viability, T/C [26]: 60.2%; viability, T/C [35]: 46.6%; viability, T/C [36]: 0.19% |
